System: human mixed lymphocyte reaction (MLR)
Assay: human mixed lymphocyte reaction (MLR) assay, immunosuppressant activity
Format: cell-based
Conditions: Table 1
Experimental: […] Assay of Biological Activity
The immunosuppressant activity of the compounds of the present invention was determined using the human mixed lymphocyte reaction (MLR) assay described by Kino, T. et al. in Transplantation Proceedings, XIX(5):36-39,Suppl. 6 (1987).

| Structure (SMILES) | IC50 [pM] |
| --- | --- |
| CC[C@@H]1/C=C(\C)C[C@H](C)C[C@H](OC)[C@H]2O[C@@](O)(C(=O)C(=O)N3CCCC[C@H]3C(=O)O[C@H](/C(C)=C/[C@@H]3CCC(OC)C(n4ccnn4)C3)[C@H](C)[C@@H](O)CC1=O)[C@H](C)C[C@@H]2OC (some centres unmarked) [Example 6] | 440 |
| CC[C@@H]1/C=C(\C)C[C@H](C)C[C@H](OC)[C@H]2O[C@@](O)(C(=O)C(=O)N3CCCC[C@H]3C(=O)O[C@H](/C(C)=C/[C@@H]3CCC(OC)C(n4nnc5ccc([N+](=O)[O-])cc54)C3)[C@H](C)[C@@H](O)CC1=O)[C@H](C)C[C@@H]2OC (some centres unmarked) [Example 12] | 940 |
| CC[C@@H]1/C=C(\C)C[C@H](C)C[C@H](OC)[C@H]2O[C@@](O)(C(=O)C(=O)N3CCCC[C@H]3C(=O)O[C@H](/C(C)=C/[C@@H]3CC[C@H](n4nnc5cc([N+](=O)[O-])ccc54)[C@H](OC)C3)[C@H](C)[C@@H](O)CC1=O)[C@H](C)C[C@@H]2OC [Example 9] | 230 |
| CC[C@@H]1/C=C(\C)C[C@H](C)C[C@H](OC)[C@H]2O[C@@](O)(C(=O)C(=O)N3CCCC[C@H]3C(=O)O[C@H](/C(C)=C/[C@@H]3CC[C@H](n4cncn4)[C@H](OC)C3)[C@H](C)[C@@H](O)CC1=O)[C@H](C)C[C@@H]2OC [Example 13] | 620 |
| CC[C@@H]1/C=C(\C)C[C@H](C)C[C@H](OC)[C@H]2O[C@@](O)(C(=O)C(=O)N3CCCC[C@H]3C(=O)O[C@H](/C(C)=C/[C@@H]3CC[C@H](n4nnc5ccc([N+](=O)[O-])cc54)[C@H](OC)C3)[C@H](C)[C@@H](O)CC1=O)[C@H](C)C[C@@H]2OC [Example 10] | 220 |
| CC[C@@H]1/C=C(\C)C[C@H](C)C[C@H](OC)[C@H]2O[C@@](O)(C(=O)C(=O)N3CCCC[C@H]3C(=O)O[C@H](/C(C)=C/[C@@H]3CCC(OC)C(n4nnc5ccccc54)C3)[C@H](C)[C@@H](O)CC1=O)[C@H](C)C[C@@H]2OC (some centres unmarked) [Example 8] | 1760 |
| CC[C@@H]1/C=C(\C)C[C@H](C)C[C@H](OC)[C@H]2O[C@@](O)(C(=O)C(=O)N3CCCC[C@H]3C(=O)O[C@H](/C(C)=C/[C@@H]3CCC(OC)C(n4cnc([N+](=O)[O-])n4)C3)[C@H](C)[C@@H](O)CC1=O)[C@H](C)C[C@@H]2OC (some centres unmarked) [Example 16] | 1000 |

Further compounds by falling IC50, results first:

| IC50 [pM] | Structure (SMILES) |
| --- | --- |
| 2480 | CC[C@@H]1/C=C(\C)C[C@H](C)C[C@H](OC)[C@H]2O[C@@](O)(C(=O)C(=O)N3CCCC[C@H]3C(=O)O[C@H](/C(C)=C/[C@@H]3CC[C@H](n4ccnn4)[C@H](OC)C3)[C@H](C)[C@@H](O)CC1=O)[C@H](C)C[C@@H]2OC [Example 5] |
| 1560 | CC[C@@H]1/C=C(\C)C[C@H](C)C[C@H](OC)[C@H]2O[C@@](O)(C(=O)C(=O)N3CCCC[C@H]3C(=O)O[C@H](/C(C)=C/[C@@H]3CCC(OC)C(n4nnc5cc([N+](=O)[O-])ccc54)C3)[C@H](C)[C@@H](O)CC1=O)[C@H](C)C[C@@H]2OC (some centres unmarked) [Example 11] |
| 210 | CC[C@@H]1/C=C(\C)C[C@H](C)C[C@H](OC)[C@H]2O[C@@](O)(C(=O)C(=O)N3CCCC[C@H]3C(=O)O[C@H](/C(C)=C/[C@@H]3CC[C@H](n4nnc5ccccc54)[C@H](OC)C3)[C@H](C)[C@@H](O)CC1=O)[C@H](C)C[C@@H]2OC [Example 7] |
| 40 | CC[C@@H]1/C=C(\C)C[C@H](C)C[C@H](OC)[C@H]2O[C@@](O)(C(=O)C(=O)N3CCCC[C@H]3C(=O)O[C@H](/C(C)=C/[C@@H]3CC[C@H](n4cnc([N+](=O)[O-])n4)[C@H](OC)C3)[C@H](C)[C@@H](O)CC1=O)[C@H](C)C[C@@H]2OC [Example 15] |
